24 molecules from patent publication US9029387B2, “Benzonaphthyridinamines as autotaxin inhibitors” (Merck Patent GmbH, priority 2010, dated 2015) can be followed below.

Each structure is given as a SMILES string.

The first test addresses T1, recombinant autotaxin (Homo sapiens, UniProt Q13822).
T1 construct: made in house; host or cells: Hi5 insect cells (baculovirus)
Put plainly: Autotaxin test (enzyme test), Amplex Red fluorescence. It is filed as biochemical. As to conditions: IC50 ranges; LPC 75 μM; read-out: Autotaxin inhibition IC50. How it is done: The autotaxin activity is measured indirectly using Amplex Red reagent. Amplex Red is measured here as fluorogenic indicator for the H2O2 formed. In detail, autotaxin converts the substrate lysophosphatidylcholine (LPC) into phosphocholine and lysophosphatidylic acid (LPA). After this reaction, the phosphocholine is reacted with alkaline phosphatase to give inorganic phosphate and choline. In the next step, choline is oxidised by choline oxidase to give betaine, with formation of H2O2. H2O2 reacts with Amplex Red reagent in the presence of peroxidase (horseradish peroxidase) in a 1:1 stoichiometry and forms the highly fluorescent resorufin. The fluorescence is measured in a reaction-dependent kinetic mode in order that fluorescent signals from possible other fluorescent substances which are not involved in the reaction can be corrected out.
1.5 μl of a standard solution or of the test substances (compounds of the invention) in individual concentrations dissolved in 20 mM Hepes pH 7.2 with a maximum of 7.7% of DMSO are pre-incubated together with 10 μl (16 ng) of highly purified recombinant autotaxin in a black microtitre plate provided with 384 wells at 22° C. for 30 min. The reaction is then initiated by addition of 5 μl of L-α-lysophosphatidylcholine (LPC), where the final concentration of LPC is 75 μM. The mixture is incubated at 37° C. for 90 min. After the incubation, Amplex Red reagent, peroxidase (horseradish peroxidase) and choline oxidase is added, and the fluorescence is immediately measured at 612 nm with excitation of 485 nm in a “Tecan Ultra multimode” reader. The activity of autotaxin is calculated indirectly via detection of the H2O2 formed.
• Microtitre plate: PS microplate, 384 wells, small volume, black Corning, Cat#3677 • Protein: recombinant autotaxin (Baculovirale Hi5 Expression) • Substrate: L-a-lysophosphatidylcholine (chicken egg)); Avanti Polar Lipids #830071 P • Standard: C14 LPA, Avanti Polar Lipids, Cat#857120P • Detection reagent: Amplex Red reagent; Invitrogen #A12222; dissolved in 1.923 ml of DMSO peroxidase type VI-A (horseradish) from Sigma #P6782; dissolved in 7.45 ml of test buffer, choline oxidase; Sigma #C5896; dissolved in 2.47 ml of test buffer • Detection reagent mix: 1:100 dilution of Amplex Red Reagenzt in test buffer • Test buffer: 200 mM Tris HCl, Merck, Cat #1.08219, pH 7.9, 0.1% BSA, lipid-free, Roche Cat#775835 Pharmacological Data Autotaxin Inhibition
What is called IC50 is the concentration that gives 50% inhibition. `COc1ccc(Cl)cc1NC(=O)CN1CCc2nc3ccccc3c(NC3CCN(C)CC3)c2C1` [Compound 1, N-(5-Chloro-2-methoxyphenyl)-2-[10-(1-methylpiperidin-4-ylamino)-3,4-dihydro-1H-benzo[b]-1,6-naphthyridin-2-yl]acetamide]: the IC50 was in the range of 100 to 1000 nM.
Same read-out and setting: the result for `COc1ccc(Cl)cc1NC(=O)CN1CCc2nc3ccccc3c(N)c2C1` [Compound 2, 2-(10-Amino-3,4-dihydro-1H-benzo[b]-1,6-naphthyridin-2-yl)-N-(5-chloro-2-methoxyphenyl)acetamide] reads above 1000 nM.
In the case of `COc1ccc(Cl)cc1NC(=O)CN1CCc2nc3ccccc3c(NCCO)c2C1` [Compound 4, N-(5-Chloro-2-methoxyphenyl)-2-[10-(2-hydroxy-ethylamino)-3,4-dihydro-1H-benzo[b]-1,6-naphthyridin-2-yl]acetamide], the IC50 was in the range of 100 to 1000 nM.
Turning to `COc1ccc(Cl)cc1NC(=O)CN1CCc2nc3ccccc3c(NCCN(C)C)c2C1` [Compound 5, N-(5-Chloro-2-methoxyphenyl)-2-[10-(2-dimethylamino-ethylamino)-3,4-dihydro-1H-benzo[b]-1,6-naphthyridin-2-yl]acetamide], the IC50 was in the range of 100 to 1000 nM.
Take `COc1ccc(Cl)cc1NC(=O)COC(=O)N1CCc2nc3ccccc3c(NCCO)c2C1` [Compound 7, 10-(2-Hydroxyethylamino)-3,4-dihydro-1H-benzo[b]-1,6-naphthyridine-2-carboxylic acid (5-chloro-2-methoxy-phenylcarbamoyl)methyl ester]: the concentration for half-maximal inhibition (IC50) was above 1000 nM.
On the same count and under the same terms, the result for `CNC(=O)CNc1c2c(nc3ccccc13)CCN(CC(=O)Nc1cc(Cl)ccc1OC)C2` [Compound 8, N-(5-Chloro-2-methoxyphenyl)-2-[10-(methyl-carbamoylmethylamino)-3,4-dihydro-1H-benzo[b]-1,6-naphthyridin-2-yl]acetamide] reads 100 to 1000 nM; that for `COc1ccc(Cl)cc1NC(=O)CN1CCc2nc3ccccc3c(NCC(=O)N(C)C)c2C1` [Compound 9, N-(5-Chloro-2-methoxyphenyl)-2-[10-(dimethyl-carbamoylmethylamino)-3,4-dihydro-1H-benzo[b]-1,6-naphthyridin-2-yl]acetamide], 100 to 1000 nM; that for `COc1ccc(Cl)cc1NC(=O)CN1CCc2nc3ccccc3c(N3CCN(CCO)CC3)c2C1` [Compound 10, N-(5-Chloro-2-methoxyphenyl)-2-{10-[4-(2-hydroxyethyl)-piperazin-1-yl]-3,4-dihydro-1H-benzo[b]-1,6-naphthyridin-2-yl}acetamide], 100 to 1000 nM.
Same read-out and setting: the figure for `COc1ccc(Cl)cc1NC(=O)CN1CCc2nc3ccccc3c(NCc3nc4ccccc4[nH]3)c2C1` [Compound 11, 2-{10-[(1H-Benzimidazol-2-ylmethyl)amino]-3,4-dihydro-1H-benzo[b]-1,6-naphthyridin-2-yl}-N-(5-chloro-2-methoxyphenyl)acetamide] is above 1000 nM.
The same measure, in the same setting: the figure for `COc1ccc(Cl)cc1NC(=O)CN1CCc2nc3ccccc3c(NCC(=O)N3CCCC3)c2C1` [Compound 12, N-(5-Chloro-2-methoxyphenyl)-2-[10-(2-oxo-2-pyrrolidin-1-ylethylamino)-3,4-dihydro-1H-benzo[b]-1,6-naphthyridin-2-yl]acetamide] is 100 to 1000 nM.
Take `COc1ccc(Cl)cc1NC(=O)CN1CCc2nc3ccccc3c(NCC(=O)N3CCCCC3)c2C1` [Compound 13, N-(5-Chloro-2-methoxyphenyl)-2-[10-(2-oxo-2-piperidin-1-ylethylamino)-3,4-dihydro-1H-benzo[b]-1,6-naphthyridin-2-yl]acetamide]: the IC50 was in the range of 100 to 1000 nM.
As for `COc1ccc(Cl)cc1NC(=O)CN1CCc2nc3ccccc3c(NCC(=O)N3CCOCC3)c2C1` [Compound 14, N-(5-Chloro-2-methoxyphenyl)-2-[10-(2-morpholin-4-yl-2-oxoethylamino)-3,4-dihydro-1H-benzo[b]-1,6-naphthyridin-2-yl]acetamide], the IC50 was 100 to 1000 nM.
Same read-out and setting: the figure for `COc1ccc(Cl)cc1NC(=O)CN1CCc2nc3ccccc3c(NCC(=O)NC3CCCCC3)c2C1` [Compound 15, N-(5-Chloro-2-methoxyphenyl)-2-[10-(cyclohexyl-carbamoylmethylamino)-3,4-dihydro-1H-benzo[b]-1,6-naphthyridin-2-yl]acetamide] is above 1000 nM; for `COc1ccc(Cl)cc1NC(=O)CN1CCc2nc3ccccc3c(NCC(=O)N3CCN(C)CC3)c2C1` [Compound 16, N-(5-Chloro-2-methoxyphenyl)-2-{10-[2-(4-methyl-piperazin-1-yl)-2-oxoethylamino]-3,4-dihydro-1H-benzo-[b]-1,6-naphthyridin-2-yl}acetamide] it is 100 to 1000 nM; for `COc1ccc(Cl)cc1NC(=O)CN1CCc2nc3ccccc3c(NCC(=O)N3CCN(C(C)C)CC3)c2C1` [Compound 17, N-(5-Chloro-2-methoxyphenyl)-2-{10-[2-(4-isopropyl-piperazin-1-yl)-2-oxoethylamino]-3,4-dihydro-1H-benzo-[b]-1,6-naphthyridin-2-yl}acetamide] it is 100 to 1000 nM.
As for `CCN(CC)C(=O)CNc1c2c(nc3ccccc13)CCN(CC(=O)Nc1cc(Cl)ccc1OC)C2` [Compound 18, N-(5-Chloro-2-methoxyphenyl)-2-[10-(diethyl-carbamoylmethylamino)-3,4-dihydro-1H-benzo[b]-1,6-naphthyridin-2-yl]acetamide], the IC50 lay in the range of 100 to 1000 nM.
Still for that read-out and setting: the figure for `COc1ccc(Cl)cc1NC(=O)CN1CCc2nc3ccccc3c(NCC(=O)N3CCN(Cc4ccccc4)CC3)c2C1` [Compound 19, 2-{10-[2-(4-Benzylpiperazin-1-yl)-2-oxoethylamino]-3,4-dihydro-1H-benzo[b]-1,6-naphthyridin-2-yl}-N-(5-chloro-2-methoxyphenyl)acetamide] is 100 to 1000 nM.
Same read-out and setting: the result for `COc1ccc(Cl)cc1NC(=O)CN1CCc2nc3ccccc3c(Nc3ccncc3)c2C1` [Compound 20, N-(5-Chloro-2-methoxyphenyl)-2-[10-(pyridin-4-ylamino)-3,4-dihydro-1H-benzo[b]-1,6-naphthyridin-2-yl]acetamide] reads above 1000 nM; that for `COc1ccc(Cl)cc1NC(=O)CN1CCc2nc3ccccc3c(Nc3cccnc3)c2C1` [Compound 21, N-(5-Chloro-2-methoxyphenyl)-2-[10-(pyridin-3-ylamino)-3,4-dihydro-1H-benzo[b]-1,6-naphthyridin-2-yl]acetamide], above 1000 nM; that for `COc1ccc(Cl)cc1NC(=O)CN1CCc2nc3ccccc3c(Nc3ccccc3)c2C1` [Compound 22, N-(5-Chloro-2-methoxyphenyl)-2-(10-phenylamino-3,4-dihydro-1H-benzo[b]-1,6-naphthyridin-2-yl)acetamide], above 1000 nM.
Still for that read-out and setting: the figure for `COc1ccc(Cl)cc1NC(=O)CN1CCc2nc3ccccc3c(Nc3ccccn3)c2C1` [Compound 23, N-(5-Chloro-2-methoxyphenyl)-2-[10-(pyridin-2-ylamino)-3,4-dihydro-1H-benzo[b]-1,6-naphthyridin-2-yl]acetamide] is above 1000 nM.
With `COc1ccc(Nc2c3c(nc4ccccc24)CCN(CC(=O)Nc2cc(Cl)ccc2OC)C3)cc1` [Compound 24, N-(5-Chloro-2-methoxyphenyl)-2-[10-(4-methoxy-phenylamino)-3,4-dihydro-1H-benzo[b]-1,6-naphthyridin-2-yl]acetamide], the half-maximal inhibitory concentration (IC50) is above 1000 nM.

The same test, now with this note: at 3E−5M; LPC 75 μM.
Turning to `Nc1c2c(nc3ccccc13)CCN(CC(=O)Nc1cc(Cl)ccc1Cl)C2` [Compound 3, 2-(10-Amino-3,4-dihydro-1H-benzo[b]-1,6-naphthyridin-2-yl)-N-(2,5-dichlorophenyl)acetamide], the “% (ctrl 3E−5M)” value was determined as 79%.
Take `COc1ccc(Cl)cc1NC(=O)COC(=O)N1CCc2nc3ccccc3c(NCCN(C)C)c2C1` [Compound 6, 10-(2-Dimethylaminoethylamino)-3,4-dihydro-1H-benzo[b]-1,6-naphthyridine-2-carboxylic acid (5-chloro-2-methoxyphenylcarbamoyl)methyl ester]: the “% (ctrl 3E−5M)” value was −9%.
